Assay results from patent US11510902B2, “Method for preventing or treating non-alcoholic fatty liver disease by antrodins” (Simpson Biotech Co., Ltd., priority 2019, dated 2022).

Tests used:
Hep G2 cells [1] = experiment: Cell viability test (alamar blue); assay type: cell-based, Human; conditions: concentration less than 100 μg/ml, 72 hrs
Procedure: (§1) Human hepatoma cell line Hep G2 was cultured in Dulbecco's modified Eagle's medium high glucose (DMEM-HG) containing 10% fetal bovine serum, 100 U/ml penicillin and […] streptomycin at 37° C. under 5% CO2 in an incubator.
Hepasim® was a mixture from Antrodia cinnamomea mycelia, which was prepared from water or organic solvent extract of Antrodia cinnamomea mycelia. The extract of Antrodia cinnamomea mycelia comprised Antrodin B-E. 5×10^3 Hep G2 cells were seeded in a 96-well plate for 24 hrs, and then incubated with different concentrations of Hepasim®, Antrodin B, Antrodin C and Antrodin D for 72 hrs. After treatment, cells were incubated with alamar blue (10%, w/v) for 3 hrs, and then was read at […]. Cell viability was calculated by [(OD570−OD600)test/(OD570−OD600)control]×100.

Hep G2 cells [2] = experiment: Free fatty acids (FFA)-induced lipid accumulation and Oil Red determination; assay type: cell-based, Human; conditions: Oil Red; for attenuated lipid accumulation in the cells: vs control group; for cellular lipid accumulation as compared with the control group: FIG. 2
Procedure: as §1
1×10^5 Hep G2 cells were seeded in a 96-well plate and incubated with serum-free cellular medium containing 1% BSA for 24 hrs. To induce lipid accumulation, the above cells were seeded in a mixture of 0.33 mM palmitic acid and 0.66 mM oleic acid for 24 hrs, which were dissolved in serum-free medium with or without Antrodin. After lipid accumulation and Antrodin treatment, cells were washed with PBS and then fixed by 4% paraformaldehyde for 15 mins at room temperature. The fixed cells were washed with PBS for 5 mins, and then rinsed with 60% isopropanol twice; followed by incubation with 1 ml Oil Red kit for 10 mins. For quantitative analysis of cellular lipids, dye in the cellular lipids were extracted with 0.5 ml of isopropanol, and then measured at 490 nm.

[3] = test system: C57BL/6J (B6) mice on high fat diet; experiment: High fat diet mice, treating process (20 weeks, dosing 11th to 20th week); assay type: in vivo; design: Malondiadehyde in liver: unit not given here; conditions: for body weight: 11th to 20th week, high fat diet 20 weeks; for reduction of body weight increasing rate as compared with the high fat diet group: at the end of 20 weeks; for ALT / AST / TC / TG / attenuated the increased ALT as compared with the high fat diet group / attenuated the increased AST as compared with the high fat diet group / attenuated the increased TC as compared with the high fat diet group / attenuated the increased TG as compared with the high fat diet group: serum; for ALT / AST / TC / TG / MDA level increasing rate in liver / Malondiadehyde in liver / Plasma insulin / blood glucose / liver hypertrophy / liver weight / plasma insulin level increasing rate was reduced by / Plasma insulin increasing rate / body weight increasing rate / lipid droplets in the liver, hematoxylin-eosin staining of liver sections / MDA level increasing rate was reduced by / liver appearance: pale color (phenomenon of fatty liver) / attenuated the increased ALT as compared with the high fat diet group / attenuated the increased AST as compared with the high fat diet group / attenuated the increased TC as compared with the high fat diet group / attenuated the increased TG as compared with the high fat diet group / attenuated the increased blood sugar as compared with the high fat diet group: treating process; for Plasma insulin increasing rate / body weight increasing rate: relative to control group; for lipid droplets in the liver, hematoxylin-eosin staining of liver sections: FIG. 5; for MDA level increasing rate was reduced by: liver; for liver appearance: pale color (phenomenon of fatty liver): FIG. 4
Procedure: 2.1 8-week-old male C57BL/6J (B6) mice were used, which were purchased from the National Laboratory Animal Center (Taipei, Taiwan). All animals were maintained at an animal room at a temperature of 23±2° C., and 12 hrs light/12 hrs dark cycle.
According to the “Healthy food of liver health effects assessment” (Taiwan Food and Drug Administration, Taiwan), all 8-week test mice were randomized into a control group, a high fat diet group, and test (high fat diet with different dosage of Hepasim®, Antrodin B or Antrodin C) groups. Each group contained 3-4 mice.
The control group was given 20 weeks of normal diet, and all other groups were given 20 weeks of high fat diet. […] Body weights of the mice in each group were recorded weekly. At the end of 20 weeks, all mice were sacrificed by CO2 overdose. At the time of death of the mouse, blood was collected from the heart of the mouse. To separate the serum, whole blood was centrifuged in a refrigerated centrifuge at 15,700×g at 4° C. for 5 minutes. Livers were removed from the mice, and then rinsed in ice-cold saline. Liver samples were divided for various assays and histological assessment.
Stored liver samples (0.1 g) were homogenized in 1 ml PBS, and then was centrifuged in a refrigerated centrifuge at 15,700×g at 4° C. for 5 minutes to remove pellets. The levels of aspartate aminotransferase (AST), alanine aminotransferase (ALT), total cholesterol (TC) and total triglyceride (TG) of the serum and the liver were measured by corresponding detection kits (Randox). Blood sugar in whole blood was detected by blood sugar machine (Roche). Plasma insulin was detected by Insulin mouse ELISA kit (Invitrogen). Malondialdehyde (MDA) level in liver was measured by using Lipid Peroxidation Assay Kit (Colorimetric/Fluorometric) (abcam, #ab118977). Liver samples were divided for various assays and histological assessment.
The livers were removed from the mice, and then fixed in 10% neural formalin. Liver samples were dehydrated by placing in ethanol at different concentrations (30, 50, 70, 95, 99.5%) and xylene. Finally, liver samples were embedded in paraffin section. For hematoxylin-eosin staining, the liver tissue sections were placed in xylene for 30 minutes for dewaxing, and then sequentially placed in 99.5% ethanol for 10 minutes, 90% ethanol for 5 minutes, 70% ethanol for 1 minute, 50% ethanol for 1 minute and 30% ethanol for 1 minutes for rehydration, and then soaked in distilled water for 10 minutes. To stained nuclei, the samples were soaked in hematoxylin solution for 4 minutes, and then soaked in distilled water for several minutes, followed by soaking in eosin solution for 2 minutes to stain cytoplasm, and then washed in distilled water for 10 minutes. Finally, samples were sequentially placed in 90% ethanol for 2 minutes, 99.5% ethanol for 2 minutes and xylene for 20 minutes, and then mounted by mounting medium.
All results were expressed as mean±SD. Significant differences were analyzed with two-tailed Student's t-test. P<0.05 represents the statistical difference between two groups.

[4] = "10%" Antrodin (so in the source)
[5] = "30%" Antrodin (so in the source)
[6] = treated with "10%" Antrodin (so in the source)
[7] = treated with "30%" Antrodin (so in the source)

SMILES: CC(C)=CCOc1ccc([C@H]2C(=O)N(O)C(=O)[C@@H]2CC(C)C)cc1 (relative stereo) [Antrodin D, 3R*,4S*-1-hydroxy-3-isobutyl-4-[4-(3-methyl-2-butenyloxy)phenyl]pyrrolidine-2,5-dione]
- cytotoxicity to Hep G2 cells (Hep G2 cells [1]): no cytotoxicity
- attenuated lipid accumulation in the cells (Hep G2 cells [2]; 100 μg/ml): 18.6%
- cellular lipid accumulation as compared with the control group (Hep G2 cells [2]): significantly reduced

SMILES: CC(C)=CCOc1ccc(C2=C(CC(C)C)C(=O)NC2=O)cc1 [Antrodin B, 3-isobutyl-4-[4-(3-methyl-2-butenyloxy)phenyl]-1H-pyrrol-2,5-dione]
- cytotoxicity to Hep G2 cells (Hep G2 cells [1]): no cytotoxicity
- attenuated lipid accumulation in the cells (Hep G2 cells [2]; 10 μg/ml): 12.8%
- attenuated lipid accumulation in the cells (Hep G2 cells [2]; 100 μg/ml): 9.3%
- cellular lipid accumulation as compared with the control group (Hep G2 cells [2]): significantly reduced
- body weight ([3]; 10 mg/Kg oral gavage every day): 37.14 ± 5.18 g
- reduction of body weight increasing rate as compared with the high fat diet group ([3]; 10 mg/Kg): 14%
- ALT ([3]; 10 mg/Kg): 29.36 ± 6.17 U/l
- AST ([3]; 10 mg/Kg): 44.39 ± 7.06 U/l
- TC ([3]; 10 mg/Kg): 266.61 ± 25.99 mg/dL
- TG ([3]; 10 mg/Kg): 189.57 ± 9.35 mg/dL
- MDA level increasing rate in liver ([3]; 10 mg/Kg): 202.8%
- Malondiadehyde in liver ([3]; 10 mg/Kg): 2.15 ± 0.58
- Plasma insulin ([3]; 10 mg/Kg): 0.99 ± 0.41 ng/mL
- blood glucose ([3]; 10 mg/Kg): 367.20 ± 34.40 mg/dL
- liver hypertrophy ([3]; 10 mg/Kg): significantly inhibited
- liver weight ([3]; 10 mg/Kg): 1.39 ± 0.33 g
- plasma insulin level increasing rate was reduced by ([3]; 10 mg/Kg): 223.6%
- Plasma insulin increasing rate ([3]; 10 mg/Kg): 80%
- body weight increasing rate ([3]; 10 mg/Kg): 21.1%
- body weight ([3]; 30 mg/Kg oral gavage every day): 41.82 ± 2.61 g
- ALT ([3]; 30 mg/Kg): 29.38 ± 11.45 U/l
- AST ([3]; 30 mg/Kg): 53.64 ± 9.99 U/l
- TC ([3]; 30 mg/Kg): 287.73 ± 48.26 mg/dL
- TG ([3]; 30 mg/Kg): 187.77 ± 6.53 mg/dL
- MDA level increasing rate in liver ([3]; 30 mg/Kg): 97.2%
- Malondiadehyde in liver ([3]; 30 mg/Kg): 1.4 ± 0.56
- Plasma insulin ([3]; 30 mg/Kg): 1.84 ± 0.93 ng/mL
- blood glucose ([3]; 30 mg/Kg): 389.00 ± 41.63 mg/dL
- liver weight ([3]; 30 mg/Kg): 1.5 ± 0.25 g
- plasma insulin level increasing rate was reduced by ([3]; 30 mg/Kg): 69.1%
- Plasma insulin increasing rate ([3]; 30 mg/Kg): 234.5%
- body weight increasing rate ([3]; 30 mg/Kg): 36.3%
- lipid droplets in the liver, hematoxylin-eosin staining of liver sections [3, 4]: significantly attenuated
- lipid droplets in the liver, hematoxylin-eosin staining of liver sections [3, 5]: significantly attenuated
- MDA level increasing rate was reduced by [3, 6]: 24.8%
- MDA level increasing rate was reduced by [3, 7]: 129.6%
- liver appearance: pale color (phenomenon of fatty liver) [3]: not observed

SMILES: CC(C)=CCOc1ccc(C2=C(CC(C)C)C(=O)N(O)C2=O)cc1 [Antrodin C, 3-isobutyl-4-[4-(3-methyl-2-butenyloxy)phenyl]-1H-pyrrol-1-ol-2,5-dione]
- cytotoxicity to Hep G2 cells (Hep G2 cells [1]): no cytotoxicity
- attenuated lipid accumulation in the cells (Hep G2 cells [2]; 10 μg/ml): 20.6%
- attenuated lipid accumulation in the cells (Hep G2 cells [2]; 100 μg/ml): 24.1%
- cellular lipid accumulation as compared with the control group (Hep G2 cells [2]): significantly reduced
- body weight ([3]; 10 mg/Kg oral gavage every day): 40.06 ± 4.74 g
- reduction of body weight increasing rate as compared with the high fat diet group ([3]; 10 mg/Kg): 4.5%
- ALT ([3]; 10 mg/Kg): 22.99 ± 5.15 U/l
- AST ([3]; 10 mg/Kg): 38.17 ± 5.53 U/l
- TC ([3]; 10 mg/Kg): 189.36 ± 58.12 mg/dL
- TG ([3]; 10 mg/Kg): 179.28 ± 15.54 mg/dL
- attenuated the increased ALT as compared with the high fat diet group ([3]; 10 mg/Kg): ~12.3%
- attenuated the increased AST as compared with the high fat diet group ([3]; 10 mg/Kg): ~39.35%
- attenuated the increased TC as compared with the high fat diet group ([3]; 10 mg/Kg): ~66.83%
- attenuated the increased TG as compared with the high fat diet group ([3]; 10 mg/Kg): ~11.57%
- MDA level increasing rate in liver ([3]; 10 mg/Kg): 140.8%
- Malondiadehyde in liver ([3]; 10 mg/Kg): 1.71 ± 0.59
- Plasma insulin ([3]; 10 mg/Kg): 1.77 ± 0.85 ng/mL
- attenuated the increased blood sugar as compared with the high fat diet group ([3]; 10 mg/Kg): about 34.78%
- blood glucose ([3]; 10 mg/Kg): 351.80 ± 85.00 mg/dL
- liver hypertrophy ([3]; 10 mg/Kg): significantly inhibited
- liver weight ([3]; 10 mg/Kg): 1.06 ± 0.25 g
- plasma insulin level increasing rate was reduced by ([3]; 10 mg/Kg): 81.8%
- Plasma insulin increasing rate ([3]; 10 mg/Kg): 221.8%
- body weight increasing rate ([3]; 10 mg/Kg): 30.6%
- body weight ([3]; 30 mg/Kg oral gavage every day): 37.50 ± 4.80 g
- reduction of body weight increasing rate as compared with the high fat diet group ([3]; 30 mg/Kg): 12.9%
- ALT ([3]; 30 mg/Kg): 17.61 ± 3.90 U/l
- AST ([3]; 30 mg/Kg): 32.33 ± 2.85 U/l
- TC ([3]; 30 mg/Kg): 171.86 ± 40.58 mg/dL
- TG ([3]; 30 mg/Kg): 170.63 ± 13.22 mg/dL
- attenuated the increased ALT as compared with the high fat diet group ([3]; 30 mg/Kg): ~48.96%
- attenuated the increased AST as compared with the high fat diet group ([3]; 30 mg/Kg): ~74.17%
- attenuated the increased TC as compared with the high fat diet group ([3]; 30 mg/Kg): ~86.26%
- attenuated the increased TG as compared with the high fat diet group ([3]; 30 mg/Kg): ~21.96%
- MDA level increasing rate in liver ([3]; 30 mg/Kg): 90.1%
- Malondiadehyde in liver ([3]; 30 mg/Kg): 1.35 ± 0.57
- Plasma insulin ([3]; 30 mg/Kg): 1.25 ± 0.71 ng/mL
- attenuated the increased blood sugar as compared with the high fat diet group ([3]; 30 mg/Kg): about 79.48%
- blood glucose ([3]; 30 mg/Kg): 298.60 ± 38.93 mg/dL
- liver hypertrophy ([3]; 30 mg/Kg): significantly inhibited
- liver weight ([3]; 30 mg/Kg): 1.05 ± 0.24 g
- plasma insulin level increasing rate was reduced by ([3]; 30 mg/Kg): 176.3%
- Plasma insulin increasing rate ([3]; 30 mg/Kg): 127.3%
- body weight increasing rate ([3]; 30 mg/Kg): 22.2%
- lipid droplets in the liver, hematoxylin-eosin staining of liver sections [3, 4]: significantly attenuated
- lipid droplets in the liver, hematoxylin-eosin staining of liver sections [3, 5]: significantly attenuated
- MDA level increasing rate was reduced by [3, 6]: 86%
- MDA level increasing rate was reduced by [3, 7]: 136.7%
- liver appearance: pale color (phenomenon of fatty liver) [3]: not observed
